# Data reported in ChEMBL document CHEMBL4507312 (2021).
# Columns and labels:
# [1] = molecular target: Beta-1 adrenergic receptor (Homo sapiens) (UniProt P08588); conditions: Compound concentration 10.0 uM
# [2] = molecular target: Alpha-2A adrenergic receptor (Homo sapiens) (UniProt P08913); conditions: Compound concentration 10.0 uM
# [3] = molecular target: Histamine H4 receptor (Homo sapiens) (UniProt Q9H3N8); conditions: Compound concentration 10.0 uM
# [4] = molecular target: Sodium-dependent dopamine transporter (Homo sapiens) (UniProt Q01959); conditions: Compound concentration 10.0 uM
# [5] = molecular target: D(1B) dopamine receptor (Homo sapiens) (UniProt P21918); conditions: Compound concentration 10.0 uM
# [6] = molecular target: 5-hydroxytryptamine receptor 2A (Homo sapiens) (UniProt P28223); conditions: Compound concentration 10.0 uM
# [7] = molecular target: 5-hydroxytryptamine receptor 1A (Homo sapiens) (UniProt P08908); conditions: Compound concentration 10.0 uM
# [8] = molecular target: Alpha-1B adrenergic receptor (Homo sapiens) (UniProt P35368); conditions: Compound concentration 10.0 uM
# [9] = molecular target: Delta-type opioid receptor (Homo sapiens) (UniProt P41143); conditions: Compound concentration 10.0 uM
# [10] = molecular target: Alpha-1D adrenergic receptor (Homo sapiens) (UniProt P25100); conditions: Compound concentration 10.0 uM
# [11] = molecular target: 5-hydroxytryptamine receptor 3A (Homo sapiens) (UniProt P46098); conditions: Compound concentration 10.0 uM
# [12] = molecular target: 5-hydroxytryptamine receptor 6 (Homo sapiens) (UniProt P50406); conditions: Compound concentration 10.0 uM
# [13] = molecular target: Alpha-2B adrenergic receptor (Homo sapiens) (UniProt P18089); conditions: Compound concentration 10.0 uM
# [14] = molecular target: Muscarinic acetylcholine receptor M3 (Homo sapiens) (UniProt P20309); conditions: Compound concentration 10.0 uM
# [15] = molecular target: Muscarinic acetylcholine receptor M1 (Homo sapiens) (UniProt P11229); conditions: Compound concentration 10.0 uM
# Rattus norvegicus = species on record: Rattus norvegicus; conditions: Compound concentration 10.0 uM
# [16] = molecular target: Histamine H1 receptor (Homo sapiens) (UniProt P35367); conditions: Compound concentration 10.0 uM
# [17] = molecular target: Sodium-dependent noradrenaline transporter (Homo sapiens) (UniProt P23975); conditions: Compound concentration 10.0 uM
# [18] = molecular target: 5-hydroxytryptamine receptor 1B (Homo sapiens) (UniProt P28222); conditions: Compound concentration 10.0 uM
# [19] = molecular target: Alpha-2C adrenergic receptor (Homo sapiens) (UniProt P18825); conditions: Compound concentration 10.0 uM
# [20] = molecular target: 5-hydroxytryptamine receptor 7 (Homo sapiens) (UniProt P34969); conditions: Compound concentration 10.0 uM
# [21] = molecular target: Sodium-dependent serotonin transporter (Homo sapiens) (UniProt P31645); conditions: Compound concentration 10.0 uM
# [22] = molecular target: Mu-type opioid receptor (Homo sapiens) (UniProt P35372); conditions: Compound concentration 10.0 uM
# [23] = molecular target: 5-hydroxytryptamine receptor 2B (Homo sapiens) (UniProt P41595); conditions: Compound concentration 10.0 uM
# [24] = molecular target: T1, Sigma intracellular receptor 2 (Homo sapiens, UniProt Q5BJF2); test: GPCRScan assay: inhibition of Sigma 2; parameters: radioligand conc. used [nm] 5.0, parental cells HEKT
# [25] = molecular target: Beta-2 adrenergic receptor (Homo sapiens) (UniProt P07550); conditions: Compound concentration 10.0 uM
# [26] = molecular target: Kappa-type opioid receptor (Homo sapiens) (UniProt P41145); conditions: Compound concentration 10.0 uM
# [27] = molecular target: Muscarinic acetylcholine receptor M4 (Homo sapiens) (UniProt P08173); conditions: Compound concentration 10.0 uM
# [28] = molecular target: 5-hydroxytryptamine receptor 2C (Homo sapiens) (UniProt P28335); conditions: Compound concentration 10.0 uM
# [29] = molecular target: 5-hydroxytryptamine receptor 5A (Homo sapiens) (UniProt P47898); conditions: Compound concentration 10.0 uM
# [30] = molecular target: Beta-3 adrenergic receptor (Homo sapiens) (UniProt P13945); conditions: Compound concentration 10.0 uM
# [31] = molecular target: Alpha-1A adrenergic receptor (Homo sapiens) (UniProt P35348); conditions: Compound concentration 10.0 uM
# [32] = molecular target: D(4) dopamine receptor (Homo sapiens) (UniProt P21917); conditions: Compound concentration 10.0 uM
# [33] = molecular target: Muscarinic acetylcholine receptor M2 (Homo sapiens) (UniProt P08172); conditions: Compound concentration 10.0 uM
# [34] = molecular target: T1, Sigma intracellular receptor 2; conditions: Compound concentration 10.0 uM
# [35] = molecular target: Muscarinic acetylcholine receptor M5 (Homo sapiens) (UniProt P08912); conditions: Compound concentration 10.0 uM
# Chain of Muscarinic acetylcholine receptor M5 (Homo sapiens) (P08912 whole entry): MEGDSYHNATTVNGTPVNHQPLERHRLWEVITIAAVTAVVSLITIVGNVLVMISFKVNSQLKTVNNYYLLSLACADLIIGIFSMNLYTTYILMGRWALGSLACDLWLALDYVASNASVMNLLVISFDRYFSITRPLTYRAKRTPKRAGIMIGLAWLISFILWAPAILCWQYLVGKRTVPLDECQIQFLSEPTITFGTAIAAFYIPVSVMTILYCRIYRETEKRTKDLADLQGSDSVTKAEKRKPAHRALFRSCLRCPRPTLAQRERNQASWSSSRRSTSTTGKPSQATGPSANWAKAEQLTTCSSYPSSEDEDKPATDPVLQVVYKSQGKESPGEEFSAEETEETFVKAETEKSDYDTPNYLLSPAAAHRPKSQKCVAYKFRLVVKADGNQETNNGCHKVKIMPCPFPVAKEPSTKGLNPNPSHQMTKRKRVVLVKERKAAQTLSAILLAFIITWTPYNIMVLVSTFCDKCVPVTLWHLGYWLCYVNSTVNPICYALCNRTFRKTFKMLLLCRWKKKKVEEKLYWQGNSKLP
# T1 sequence (Q5BJF2 whole entry): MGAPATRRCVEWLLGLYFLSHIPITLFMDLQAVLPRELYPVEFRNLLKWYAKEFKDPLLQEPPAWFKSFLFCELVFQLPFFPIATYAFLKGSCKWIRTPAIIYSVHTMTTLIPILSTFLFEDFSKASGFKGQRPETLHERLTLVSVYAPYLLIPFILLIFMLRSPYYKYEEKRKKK
# Chain of Beta-1 adrenergic receptor (Homo sapiens) (P08588 whole entry, looked up): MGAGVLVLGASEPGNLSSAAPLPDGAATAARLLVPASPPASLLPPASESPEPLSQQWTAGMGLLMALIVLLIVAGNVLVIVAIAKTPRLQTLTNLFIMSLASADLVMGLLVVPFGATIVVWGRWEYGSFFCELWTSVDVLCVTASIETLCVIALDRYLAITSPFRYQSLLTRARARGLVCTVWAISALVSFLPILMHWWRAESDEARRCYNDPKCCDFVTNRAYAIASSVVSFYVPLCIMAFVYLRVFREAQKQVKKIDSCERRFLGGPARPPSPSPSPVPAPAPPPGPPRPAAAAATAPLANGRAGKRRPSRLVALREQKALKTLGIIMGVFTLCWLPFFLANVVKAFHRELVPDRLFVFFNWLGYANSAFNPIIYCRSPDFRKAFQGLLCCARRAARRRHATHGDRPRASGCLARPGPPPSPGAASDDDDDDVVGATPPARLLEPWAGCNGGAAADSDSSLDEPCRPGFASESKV
# Chain of Histamine H1 receptor (Homo sapiens) (P35367 whole entry): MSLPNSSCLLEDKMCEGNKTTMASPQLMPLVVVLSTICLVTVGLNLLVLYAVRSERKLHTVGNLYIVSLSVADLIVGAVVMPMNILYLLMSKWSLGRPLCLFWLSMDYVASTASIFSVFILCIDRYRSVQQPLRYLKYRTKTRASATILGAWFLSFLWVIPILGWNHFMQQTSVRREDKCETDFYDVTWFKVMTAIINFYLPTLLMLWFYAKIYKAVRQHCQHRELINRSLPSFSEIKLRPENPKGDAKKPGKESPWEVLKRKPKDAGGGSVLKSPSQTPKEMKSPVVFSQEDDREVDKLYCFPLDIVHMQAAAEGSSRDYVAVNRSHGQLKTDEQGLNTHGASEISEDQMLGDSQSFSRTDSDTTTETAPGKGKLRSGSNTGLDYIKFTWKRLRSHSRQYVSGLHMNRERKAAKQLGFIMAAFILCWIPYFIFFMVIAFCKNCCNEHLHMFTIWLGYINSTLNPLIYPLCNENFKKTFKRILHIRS
# Chain of Sodium-dependent noradrenaline transporter (Homo sapiens) (P23975 whole entry): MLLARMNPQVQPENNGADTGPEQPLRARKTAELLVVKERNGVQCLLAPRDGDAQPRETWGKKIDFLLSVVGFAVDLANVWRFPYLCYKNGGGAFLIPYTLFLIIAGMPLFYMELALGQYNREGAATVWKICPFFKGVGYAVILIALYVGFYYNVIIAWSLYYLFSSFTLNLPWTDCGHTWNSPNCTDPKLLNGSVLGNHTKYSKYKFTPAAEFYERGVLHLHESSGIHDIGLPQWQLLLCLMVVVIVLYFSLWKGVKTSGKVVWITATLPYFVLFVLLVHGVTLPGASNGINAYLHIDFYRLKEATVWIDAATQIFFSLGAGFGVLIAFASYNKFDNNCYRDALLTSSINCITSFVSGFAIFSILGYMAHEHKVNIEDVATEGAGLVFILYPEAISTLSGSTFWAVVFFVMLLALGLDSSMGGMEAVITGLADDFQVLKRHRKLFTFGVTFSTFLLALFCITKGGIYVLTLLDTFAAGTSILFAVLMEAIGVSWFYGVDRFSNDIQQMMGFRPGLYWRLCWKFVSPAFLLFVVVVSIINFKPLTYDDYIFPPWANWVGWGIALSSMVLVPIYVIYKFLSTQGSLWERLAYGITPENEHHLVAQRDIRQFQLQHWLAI
# Chain of 5-hydroxytryptamine receptor 5A (Homo sapiens) (P47898 whole entry): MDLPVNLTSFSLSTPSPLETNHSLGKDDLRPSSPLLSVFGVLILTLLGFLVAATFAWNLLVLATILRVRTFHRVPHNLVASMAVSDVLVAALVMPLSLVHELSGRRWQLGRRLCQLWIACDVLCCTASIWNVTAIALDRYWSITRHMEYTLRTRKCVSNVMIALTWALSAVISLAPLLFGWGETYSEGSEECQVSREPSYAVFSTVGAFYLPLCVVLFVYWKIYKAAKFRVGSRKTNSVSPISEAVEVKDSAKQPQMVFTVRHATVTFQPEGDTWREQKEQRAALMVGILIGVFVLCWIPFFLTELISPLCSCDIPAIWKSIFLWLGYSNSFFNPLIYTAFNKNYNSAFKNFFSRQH
# Chain of 5-hydroxytryptamine receptor 6 (Homo sapiens) (P50406 whole entry): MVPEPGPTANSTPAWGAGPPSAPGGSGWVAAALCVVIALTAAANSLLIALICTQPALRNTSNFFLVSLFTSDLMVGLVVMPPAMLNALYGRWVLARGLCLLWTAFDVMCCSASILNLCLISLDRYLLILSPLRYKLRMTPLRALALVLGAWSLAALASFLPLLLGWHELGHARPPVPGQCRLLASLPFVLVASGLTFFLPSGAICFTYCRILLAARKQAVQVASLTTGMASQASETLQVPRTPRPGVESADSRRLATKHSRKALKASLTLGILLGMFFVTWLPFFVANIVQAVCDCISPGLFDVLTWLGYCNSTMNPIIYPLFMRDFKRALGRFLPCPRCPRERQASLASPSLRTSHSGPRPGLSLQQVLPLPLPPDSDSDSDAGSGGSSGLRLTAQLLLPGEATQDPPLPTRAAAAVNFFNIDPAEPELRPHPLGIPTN
# Chain of D(1B) dopamine receptor (Homo sapiens) (P21918 whole entry): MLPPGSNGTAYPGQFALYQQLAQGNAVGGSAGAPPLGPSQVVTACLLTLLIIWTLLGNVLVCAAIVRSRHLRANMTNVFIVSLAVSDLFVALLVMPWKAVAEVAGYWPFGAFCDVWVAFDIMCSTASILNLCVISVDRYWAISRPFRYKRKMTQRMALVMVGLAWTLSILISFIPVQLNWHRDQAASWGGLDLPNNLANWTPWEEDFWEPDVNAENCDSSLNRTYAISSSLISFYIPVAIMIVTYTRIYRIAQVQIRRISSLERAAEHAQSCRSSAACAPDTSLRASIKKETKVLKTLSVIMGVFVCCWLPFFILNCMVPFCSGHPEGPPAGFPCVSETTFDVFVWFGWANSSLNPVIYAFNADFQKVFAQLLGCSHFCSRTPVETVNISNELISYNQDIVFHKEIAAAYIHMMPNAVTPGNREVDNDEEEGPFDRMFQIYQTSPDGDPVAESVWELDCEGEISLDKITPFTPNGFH
# Chain of Kappa-type opioid receptor (Homo sapiens) (P41145 whole entry): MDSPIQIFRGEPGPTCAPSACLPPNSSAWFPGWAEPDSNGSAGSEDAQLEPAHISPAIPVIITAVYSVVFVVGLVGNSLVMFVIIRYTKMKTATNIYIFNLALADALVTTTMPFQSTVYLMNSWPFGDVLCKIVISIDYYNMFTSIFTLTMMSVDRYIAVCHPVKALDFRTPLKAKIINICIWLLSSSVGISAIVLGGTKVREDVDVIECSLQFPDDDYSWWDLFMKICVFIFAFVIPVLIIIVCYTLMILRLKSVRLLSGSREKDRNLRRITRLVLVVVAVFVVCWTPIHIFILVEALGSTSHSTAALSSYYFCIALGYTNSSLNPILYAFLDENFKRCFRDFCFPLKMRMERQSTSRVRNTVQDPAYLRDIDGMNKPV
# Chain of Mu-type opioid receptor (Homo sapiens) (P35372 whole entry): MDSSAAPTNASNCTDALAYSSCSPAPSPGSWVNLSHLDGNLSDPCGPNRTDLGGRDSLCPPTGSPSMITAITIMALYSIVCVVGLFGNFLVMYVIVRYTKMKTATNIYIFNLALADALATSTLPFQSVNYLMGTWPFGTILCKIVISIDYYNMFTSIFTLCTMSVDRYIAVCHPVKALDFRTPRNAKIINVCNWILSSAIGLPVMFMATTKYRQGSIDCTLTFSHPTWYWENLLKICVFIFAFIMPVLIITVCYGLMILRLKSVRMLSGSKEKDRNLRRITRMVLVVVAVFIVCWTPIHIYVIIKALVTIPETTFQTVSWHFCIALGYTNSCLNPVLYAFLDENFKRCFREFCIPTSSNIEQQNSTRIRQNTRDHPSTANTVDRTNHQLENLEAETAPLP
# Chain of Muscarinic acetylcholine receptor M2 (Homo sapiens) (P08172 whole entry): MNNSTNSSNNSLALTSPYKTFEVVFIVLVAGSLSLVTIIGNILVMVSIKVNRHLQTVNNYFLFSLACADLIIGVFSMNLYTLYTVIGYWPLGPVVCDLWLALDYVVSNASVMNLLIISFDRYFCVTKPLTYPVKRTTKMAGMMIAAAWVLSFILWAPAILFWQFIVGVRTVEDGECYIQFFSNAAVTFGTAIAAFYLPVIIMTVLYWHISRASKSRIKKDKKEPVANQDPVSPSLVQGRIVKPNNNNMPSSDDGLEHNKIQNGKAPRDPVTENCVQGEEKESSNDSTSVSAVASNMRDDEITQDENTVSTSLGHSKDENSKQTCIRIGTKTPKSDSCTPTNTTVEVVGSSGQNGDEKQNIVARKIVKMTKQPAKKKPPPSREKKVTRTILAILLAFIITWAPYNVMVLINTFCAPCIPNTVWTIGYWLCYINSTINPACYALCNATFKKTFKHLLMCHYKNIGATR
smiles,measurement,setting,value
Cc1c(Oc2ccc(F)cc2)c(OC(C)C)nn1-c1ccc(C2CC2)cn1 [IPP/CNRS-A019],inhibition,[1],23.9%
same,inhibition,[2],7.06%
same,inhibition,[3],-0.91%
same,inhibition,[4],-6.74%
same,inhibition,[5],-2.37%
same,inhibition,[6],-7.39%
same,inhibition,[7],0.45%
same,inhibition,[8],-4.23%
same,inhibition,[9],1.01%
same,inhibition,[10],-0.81%
same,inhibition,[11],11.7%
same,inhibition,[12],9.36%
same,inhibition,[13],13.3%
same,inhibition,[14],-6.6%
same,inhibition,[15],5.35%
same,inhibition,Rattus norvegicus,-2.86%
same,inhibition,[16],21.2%
same,inhibition,[17],0.15%
same,inhibition,[18],-6.09%
same,inhibition,[19],8.56%
same,inhibition,[20],15.8%
same,inhibition,[21],-0.39%
same,inhibition,[22],-1.35%
same,inhibition,[23],22.8%
same,Ki,[24]; read-out: Ki,5.25 µM
same,Ki,[24]; read-out: pKi (converted),4.47 µM
same,inhibition,[25],17%
same,inhibition,[26],-0.09%
same,inhibition,[27],10.3%
same,inhibition,[28],-1.77%
same,inhibition,[29],-6.43%
same,inhibition,[30],17.6%
same,inhibition,[31],-2.65%
same,inhibition,[32],-4.56%
same,inhibition,[33],16.2%
same,inhibition,[34],64.9%
same,inhibition,[35],4.72%
